Results as given in ChEMBL document CHEMBL4334495, “Design and Biological Evaluation of m-Xylene Thioether-Stapled Short Helical Peptides Targeting the HIV-1 gp41 Hexameric Coiled-Coil Fusion Complex” (J Med Chem, 2019).
Activity calls are given as the source filed them. No cut-off for these calls is given here. Starred links: 1 amine or outer side, 2 acyl side, 3 side chain; linkers in the order of their positions; H or OH if unused. Positions of bridges follow the written chain, without caps; N, C: chain ends. Non-standard residues stand in square brackets, D forms with d. Residues, ends and D or L forms follow the SMILES beside them. ξ: configuration not given here. mXylylene = c1cc(C[*:1])cc(C[*:2])c1; ξhCys = NC(CCS)C(=O)O

Experiments:
[1] = test system: Human immunodeficiency virus 1; test: Antiviral activity against T20 resistant HIV1 NL4-3 harboring with V38E/N42S mutant infected in human MT2 cells or CEMx174 5.25 M7 cells assessed as reduction in p24 Gag protein production at 7000:1 compound to HP23 ratio measured at 4 days post-infection by ELISA; assay type: functional, organism-based
[2] = test system: Human immunodeficiency virus 1; test: Ratio of EC50 for antiviral activity against T2635 resistant HIV1 LAI harboring Q66R mutant infected in human MT2 cells or CEMx174 5.25 M7 cells in absence of HP23 to antiviral activity against T2635 resistant HIV1 LAI harboring Q66R mutant infected in human MT2 cells or CEMx174 5.25 M7 cells at 50:1 ratio of compound to HP23; assay type: functional, M:B_Lai
[3] = test system: Human immunodeficiency virus 1; test: Antiviral activity against T20 resistant HIV1 NL4-3 harboring with V38E/N42T mutant infected in human MT2 cells or CEMx174 5.25 M7 cells assessed as reduction in p24 Gag protein production at 300:1 compound to HP23 ratio measured at 4 days post-infection by ELISA; assay type: functional, organism-based
[4] = test system: Human immunodeficiency virus 1; test: (§1) Ratio of EC50 for antiviral activity against T20 resistant HIV1 NL4-3 harboring with V38E/N42S mutant infected in human MT2 cells or CEMx174 5.25 M7 cells in absence of HP23 to EC50 for antiviral activity against T20 resistant HIV1 NL4-3 harboring with V38E/N42S mutant infected in human MT2 cells or CEMx174 5.25 M7 cells at 14000:1 compound to HP23 ratio; assay type: functional
[5] = test system: Human immunodeficiency virus 1; test: Synergistic antiviral activity against T2635 resistant HIV1 LAI harboring Q66R mutant infected in human MT2 cells or CEMx174 5.25 M7 cells assessed as reduction in p24 Gag protein production by measuring combination index at 25:1 compound ratio measured at 4 days post infection by ELISA; assay type: functional, M:B_Lai
[6] = test system: Human immunodeficiency virus 1; test: Synergistic antiviral activity against R5 tropic HIV-1 subtype-B Bal infected in human MT2 cells or CEMx174 5.25 M7 cells assessed as reduction in p24 Gag protein production by measuring combination index at 3:1 ratio of hCS6ERE to compound measured at 4 days post-infection by ELISA; assay type: functional, HIV-1 group M
[7] = test system: Human immunodeficiency virus 1; test: Synergistic antiviral activity against HIV1 NL4-3 infected in human MT2 cells or CEMx174 5.25 M7 cells assessed as reduction in p24 Gag protein production by measuring combination index at 10:1 compound to HP23 ratio measured at 4 days post-infection by ELISA; assay type: functional
[8] = molecular target: Envelope glycoprotein gp160 (Human immunodeficiency virus 1) (UniProt Q6QLK5); test: Synergistic inhibition of HIV1 gp41-induced cell-cell fusion between viral envelope expressing human HL2/3 cells to CD4/CCR5 receptor expressing TZM-bl cells assessed as combination index at 4:1 compound to HP23 ratio incubated for 6 hrs by luciferase reporter gene assay
[9] = test system: Human immunodeficiency virus 1; test: Ratio of EC50 for antiviral activity against HIV1 NL4-3 infected in human MT2 cells or CEMx174 5.25 M7 cells in absence of HP23 to EC50 for antiviral activity against HIV1 NL4-3 infected in human MT2 cells or CEMx174 5.25 M7 cells at 10:1 compound to HP23 ratio; assay type: functional
[10] = molecular target: Envelope glycoprotein gp160 (Human immunodeficiency virus 1) (UniProt Q6QLK5); test: Binding affinity to HIV1 GP41 using GP41 NHR derived N36 peptide assessed as formation of oligomeric complex at 100 uM incubated for 30 mins by Coomassie blue R250 staining based Native-PAGE analysis
[11] = test system: Human immunodeficiency virus 1; test: Antiviral activity against T20 resistant HIV1 NL4-3 harboring with V38E/N42S mutant infected in human MT2 cells or CEMx174 5.25 M7 cells assessed as reduction in p24 Gag protein production at 14000:1 compound to HP23 ratio measured at 4 days post-infection by ELISA; assay type: functional, organism-based
[12] = test system: Human immunodeficiency virus 1; test: Antiviral activity against T2635 resistant HIV1 LAI harboring Q66R mutant infected in human MT2 cells or CEMx174 5.25 M7 cells assessed as reduction in p24 Gag protein production at 12.5:1 ratio of compound to HP23 measured at 4 days post infection by ELISA; assay type: functional, organism-based, M:B_Lai
[13] = test system: Human immunodeficiency virus 1; test: Antiviral activity against R5 tropic HIV-1 subtype-B Bal infected in human MT2 cells or CEMx174 5.25 M7 cells assessed as reduction in p24 Gag protein production at 6:1 ratio of compound to HP23 measured at 4 days post-infection by ELISA; assay type: functional, cell-based, HIV-1 group M; conditions: Human immunodeficiency virus 1, Bal, 96 h
[14] = test system: Human immunodeficiency virus 1; test: Antiviral activity against X4 tropic HIV-1 subtype-B 3B infected in human MT2 cells or CEMx174 5.25 M7 cells assessed as reduction in p24 Gag protein production at 6:1 ratio of hCS6ERE to compound measured at 4 days post-infection by ELISA; assay type: functional, cell-based, HIV-1 group M; conditions: Human immunodeficiency virus 1, 3B, 96 h
[15] = test system: Human immunodeficiency virus 1; test: as §1, with “hCS6ERE” for “HP23”, “14000:1 hCS6ERE to” for “14000:1”, “compound” for “compound to HP23”; assay type: functional
[16] = test system: Human immunodeficiency virus 1; test: (§2) Ratio of EC50 for antiviral activity against HIV1 NL4-3 infected in human MT2 cells or CEMx174 5.25 M7 cells in absence of hCS6ERE to EC50 for antiviral activity against HIV1 NL4-3 infected in human MT2 cells or CEMx174 5.25 M7 cells at 20:1 hCS6ERE to compound ratio; assay type: functional
[17] = test system: Human immunodeficiency virus 1; test: Ratio of EC50 for antiviral activity against T20 resistant HIV1 NL4-3 harboring with V38E/N42T mutant infected in human MT2 cells or CEMx174 5.25 M7 cells in absence of hCS6ERE to EC50 for Antiviral activity against T20 resistant HIV1 NL4-3 harboring with V38E/N42T mutant infected in human MT2 cells or CEMx174 5.25 M7 cells at 300:1 hCS6ERE to compound ratio; assay type: functional
[18] = test system: Human immunodeficiency virus 1; test: Antiviral activity against HIV1 NL4-3 infected in human MT2 cells or CEMx174 5.25 M7 cells assessed as reduction in p24 Gag protein production at 20:1 hCS6ERE to compound ratio measured at 4 days post-infection by ELISA; assay type: functional, organism-based; conditions: Human immunodeficiency virus 1, NL4-3, 96 h
[19] = test system: Human immunodeficiency virus 1; test: Antiviral activity against T20 resistant HIV1 NL4-3 harboring with V38E/N42S mutant infected in human MT2 cells or CEMx174 5.25 M7 cells assessed as reduction in p24 Gag protein production at 7000:1 hCS6ERE to compound ratio measured at 4 days post-infection by ELISA; assay type: functional, organism-based
[20] = test system: Human immunodeficiency virus 1; test: as §2, with “X4 tropic HIV-1 subtype-B 3B” for “HIV1 NL4-3”, “24:1 ratio of” for “20:1”, “compound” for “compound ratio”; assay type: functional, HIV-1 group M
[21] = test system: Human immunodeficiency virus 1; test: Antiviral activity against R5 tropic HIV-1 subtype-B Bal infected in human MT2 cells or CEMx174 5.25 M7 cells assessed as reduction in p24 Gag protein production at 6:1 ratio of hCS6ERE to compound measured at 4 days post-infection by ELISA; assay type: functional, cell-based, HIV-1 group M; conditions: Human immunodeficiency virus 1, Bal, 96 h
[22] = test system: Human immunodeficiency virus 1; test: Antiviral activity against T20 resistant HIV1 NL4-3 harboring with V38E/N42T mutant infected in human MT2 cells or CEMx174 5.25 M7 cells assessed as reduction in p24 Gag protein production at 300:1 hCS6ERE to compound ratio measured at 4 days post-infection by ELISA; assay type: functional, organism-based

Sequence of Envelope glycoprotein gp160 (Human immunodeficiency virus 1) (Q6QLK5 1-814): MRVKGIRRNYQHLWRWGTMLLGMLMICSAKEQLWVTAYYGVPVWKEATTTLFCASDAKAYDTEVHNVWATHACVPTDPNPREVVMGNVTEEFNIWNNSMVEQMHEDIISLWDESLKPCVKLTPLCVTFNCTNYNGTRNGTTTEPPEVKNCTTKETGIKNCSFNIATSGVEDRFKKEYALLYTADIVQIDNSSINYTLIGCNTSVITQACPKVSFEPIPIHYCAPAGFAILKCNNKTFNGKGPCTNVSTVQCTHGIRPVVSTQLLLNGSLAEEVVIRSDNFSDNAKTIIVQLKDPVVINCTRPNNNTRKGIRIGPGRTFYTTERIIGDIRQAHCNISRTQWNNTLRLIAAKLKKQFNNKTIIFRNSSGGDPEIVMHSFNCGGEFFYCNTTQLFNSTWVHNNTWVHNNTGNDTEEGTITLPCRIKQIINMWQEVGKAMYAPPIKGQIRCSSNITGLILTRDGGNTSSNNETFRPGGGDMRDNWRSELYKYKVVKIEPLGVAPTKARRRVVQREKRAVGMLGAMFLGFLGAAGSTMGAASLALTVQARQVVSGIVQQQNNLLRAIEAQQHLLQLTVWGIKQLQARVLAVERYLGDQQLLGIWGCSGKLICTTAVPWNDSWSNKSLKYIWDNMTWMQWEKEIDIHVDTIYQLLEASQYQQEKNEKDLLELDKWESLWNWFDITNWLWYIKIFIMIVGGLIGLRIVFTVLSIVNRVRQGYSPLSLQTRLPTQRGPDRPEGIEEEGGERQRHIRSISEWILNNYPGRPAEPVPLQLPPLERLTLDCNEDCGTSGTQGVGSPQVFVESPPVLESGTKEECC

Q: What does the source list for CC[C@H](C)[C@H](NC(C)=O)C(=O)N[C@@H](CCC(=O)O)C(=O)N[C@@H](CCC(=O)O)C(=O)N[C@@H](CC(C)C)C(=O)N[C@H](C(=O)NC1CCSCc2cccc(c2)CSCCC(C(=O)N[C@@H](CCC(N)=O)C(=O)N[C@@H](CCC(N)=O)C(=O)N[C@@H](CCCNC(=N)N)C(=O)N[C@@H](CCCCN)C(=O)N[C@@H](CC(N)=O)C(=O)N[C@@H](CCC(=O)O)C(=O)N[C@@H](CCC(=O)O)C(=O)N[C@@H](C)C(=O)N[C@@H](CC(C)C)C(=O)N[C@@H](CCCNC(=N)N)C(=O)N[C@@H](CCC(=O)O)C(=O)N[C@@H](CC(C)C)C(N)=O)NC(=O)[C@H](CCC(N)=O)NC(=O)[C@H](C)NC(=O)[C@H](C)NC1=O)[C@@H](C)CC (some centres not stated) (Ac-IEELI[ξhCys]AAQ[ξhCys]QQRKNEEALREL-NH2; linker 6-10 via mXylylene)?
A: EC50 [1]: 2520 nM; Ratio EC50 [2]: 3.3; EC50 [3]: 433 nM; Ratio EC50 [4]: 2.2; CI [5]: 0.8; CI [6]: 0.8; CI [7]: 0.7; CI [8]: 0.6; Ratio EC50 [9]: 2.5; Activity [10]: Active; EC50 [11]: 3170 nM; EC50 [12]: 22.9 nM; EC50 [13]: 6 nM

Q: What does the source list for H-EMTWEEWEKKIEEYTKKIEEILK-OH?
A: EC50 [14]: 1.3 nM; Ratio EC50 [15]: 7; Ratio EC50 [16]: 4.9; Ratio EC50 [17]: 2.9; EC50 [18]: 0.7 nM; EC50 [19]: 0.4 nM; Ratio EC50 [20]: 3.6; EC50 [21]: 1 nM; EC50 [22]: 1.4 nM
